Experimental data published in patent US6875448B1, “Method of intracellular sustained-release of drug and preparations” (Chugai Seiyaku Kabushiki Kaisha, priority 1999, dated 2005).

Test system: Ltk− cells
Assay: Efficiency of introduction into cells with the aid of Ca2+ indicator
Assay type: cell-based, mouse
Conditions: intracellular calcium elevated by calcium ionophore
Protocol: To the nanospheres (red fluorescent), calcium green-1 acetoxymethyl derivative was added as a fluorescent Ca^2+ indicator to give a concentration of 20 mM and mixed at room temperature for 1 hour so that it was adsorbed on the nanospheres. The unadsorbed calcium green-1 was removed by dialysis (Spectra/Por Membranes MWCO:12-14000) and buffer replacement was performed to prepare liposomes and fusogenic liposomes. 2×10^5 Ltk^−cells that had been seeded on 6-well plates one day before were washed with PBS(−) and exposed for 1 minute to the action of the calcium green-1 acetoxymethyl derivative, calcium green-1 adsorbed nanospheres, liposomes or fusogenic liposomes which were all conditioned to have the same fluorescence intensity of 2700 (Ex. 488 nm; Em, 534 nm). Thereafter, the cells were washed with PBS(−), cultured in an Eagle's MEM medium for 1 hour, stripped from the medium with trypsin and subjected to the measurement of fluorescence intensity (Ex, 488 nm; Em, 534 nm). Thereafter, a calcium ionophore/DMSO solution was added to give a concentration of 0.1 mg/mL and fluorescence intensity was measured at Ex=488 nm and Em=534 nm.

calcium green-1 acetoxymethyl derivative
fluorescence of calcium green-1 in cells: barely detectable
